Reference: ChEMBL document CHEMBL1201862, “PubChem BioAssay data set” (2004)
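Test compounds were applied to cells in 96-well plates for 48 hours at 5 doses. GI50 = concentration required for 50% inhibition of growth.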 Active and inactive are the calls of the source. Rule as the data show it: active = GI50 up to about 1.1 µM and inactive = higher.

Assays:
Test in all cases: inhibition of tumour cell growth, NCI panel, 48 h
HOP-18 = tested on: HOP-18
RXF 631 = tested on: RXF 631
DMS-273 = tested on: DMS-273
M19-MEL = tested on: M19-MEL
XF498 = tested on: XF498
SNB-78 = tested on: SNB-78
DMS-114 = tested on: DMS-114
DLD-1 = tested on: DLD-1
LXFL 529 = tested on: LXFL 529

Measured: GI50

Cc1ccc(NC(=O)C2C3CCC(O3)C2C(=O)O)cc1 (stereo not given)
inactive: HOP-18 > 86.3 µM | RXF 631 53.7 µM | DMS-273 > 57.8 µM | M19-MEL > 61.2 µM | XF498 22.6 µM | SNB-78 > 86.7 µM | DMS-114 33.3 µM | DLD-1 > 54.1 µM | LXFL 529 > 46.2 µM

Cc1cc2c(=O)cc(-c3ccncc3)oc2c(C(=O)O)c1C
inactive: HOP-18 > 100 µM | RXF 631 > 100 µM | DMS-273 > 100 µM | M19-MEL > 100 µM | XF498 > 100 µM | SNB-78 > 100 µM | LXFL 529 > 100 µM

COC(=O)C(=O)C(C(=O)C(=O)Nc1ccc([N+](=O)[O-])cc1)c1nc2ccccc2nc1O (stereo not given)
inactive: HOP-18 > 100 µM | RXF 631 > 100 µM | DMS-273 47.1 µM | M19-MEL > 100 µM | XF498 > 100 µM | DMS-114 > 100 µM | DLD-1 > 100 µM | LXFL 529 34.2 µM

Cc1ccc(NC(=O)CC(=O)n2nc(-c3ccccc3)c(/N=N/c3ccc(Cl)cc3)c2-c2ccccc2)cc1
inactive: HOP-18 39 µM | RXF 631 > 100 µM | DMS-273 83.8 µM | M19-MEL 22 µM | SNB-78 > 100 µM | DMS-114 39.6 µM | DLD-1 15.3 µM | LXFL 529 64.7 µM

O=C(Nc1cccc(Cl)c1)c1cc2cc(/N=N/c3ccc(Br)cc3)ccc2oc1=O
inactive: HOP-18 63.2 µM | RXF 631 68.1 µM | DMS-273 21.3 µM | M19-MEL > 10 µM | XF498 46.8 µM | SNB-78 52.8 µM | DMS-114 18.4 µM | DLD-1 40 µM | LXFL 529 14.1 µM

CCOC(=O)/C(=C/c1ccccc1Br)P(=O)(OCC)OCC
inactive: HOP-18 3.34 µM | RXF 631 2.5 µM | DMS-273 1.26 µM | M19-MEL 1.55 µM | XF498 1.93 µM | DLD-1 1.29 µM | LXFL 529 1.29 µM

COc1c(OC2OC(CO)C(O)C(O)C2O)cc2c(c1OC)-c1ccc(OC)c(=O)cc1C(NC(C)=O)CC2 (stereo not given)
inactive: HOP-18 > 100 µM | RXF 631 > 100 µM | DMS-273 > 100 µM | M19-MEL > 91.2 µM | XF498 83.6 µM | SNB-78 > 100 µM | DMS-114 35.7 µM | DLD-1 > 100 µM | LXFL 529 86.1 µM

CC(=O)O[C@@H]1CC[C@@]2(C)C(=O)C34C[C@@]5(C)C([C@@H](C)CCCC(C)C)CCC5(C)[C@](O)(O3)C(=O)[C@H]4C2C1(C)C (stereo not given in full)
inactive: HOP-18 15.8 µM | RXF 631 12.6 µM | DMS-273 13.4 µM | M19-MEL 13.8 µM | SNB-78 20.8 µM | DMS-114 17.4 µM | DLD-1 18 µM | LXFL 529 16.7 µM
